Assay type in all cases: physicochemical
A short description of series [1]: Hydrolysis of compound 3 in water at 90° C. in air, monitored by HPLC. The conditions noted are these: after 7 h. The method, then:
c) Preparation of the compound L-5-sulfanyl-α,N,N,N(trimethyl)-histidine (compound 26) by hydrolysis of the 5-acylsulfanyl compound 3
Compound 3 is prepared and purified by column as described in Example 5. 170 mg (0.6 mmoles) of compound 3 are dissolved in 10 mL of water, and the solution is heated at 90° C. in air for 7 h. The conversion is monitored by HPLC. The hydrolysis of compound 3 is complete after 7 h. The solution is evaporated to dryness. The residue is dissolved in a mixture of 5 mL of methanol and 93 mg (0.6 mmol) of dithiothreitol. After stirring for 4 h under an inert atmosphere, 2 mL of ethanol are added. A precipitate forms immediately, which is filtered and washed with ethanol (2×2 mL), then with ethyl ether (2×2 mL). After drying, 104 mg (72%) of L-5-sulfanyl-α,N,N,N(trimethyl)-histidine are obtained in the form of a beige powder.

A short description of series [2]: Analytical monitoring by 1H NMR of the hydrolysis of compound 3 and oxidation in situ into compound 27, D2O at ambient temperature. The conditions noted are these: for % hydrolysis: 1H NMR. The method, then: f) Analytical monitoring by ^1H NMR of the hydrolysis of the 5-acylsulfanyl compound 3 and oxidation in situ into compound 27
Compound 3 is prepared and purified by column as described in Example 5. 30 mg of compound 3 are dissolved in 600 μL of D2O, the solution is transferred to an NMR tube, which is stored at ambient temperature. The conversion is monitored by ^1H NMR.

Series [3] can be described thus: Analytical monitoring by 1H NMR and HPLC-ELSD of the hydrolysis of compound 3 into compound 26 in the presence of a thiol (3-mercaptopropionic acid), D2O, 40° C. The note with it: 5 equivalents 3-mercaptopropionic acid. The protocol: b) Analytical monitoring by ^1H NMR of the hydrolysis of the 5-acylsulfanyl compound 3 into the compound L-5-sulfanyl-α,N,N,N(trimethyl)-histidine (Compound 26) in the presence of a thiol
Compound 3 is prepared and purified by column as described in Example 5. 100 mg (0.33 mmoles, 1 eq.) of compound 3 are dissolved in 2.4 mL of D2O. 172 mg of 3-mercaptopropionic acid (142 μL, 5 equivalents) are added, and the solution is heated at 40° C. The conversion is monitored by ^1H NMR and by HPLC-ELSD. The yield of hydrolysis of compound 3 is 90% after 3 h (monitored by ^1H NMR). Compound 26 is formed after 3 h 30 with a yield of 97% (HPLC-ELSD).

Series [4] in a line: Analytical monitoring by HPLC of the hydrolysis of compound 3 and oxidation in situ into compound 27, aqueous fraction at 40° C. The conditions noted are these: water; for % hydrolysis: HPLC. The method, then:
e) Analytical monitoring by HPLC of the hydrolysis of the 5-acylsulfanyl compound 3 and oxidation in situ into compound 27
Compound 3 is prepared and purified by column as described in Example 5, using an ethyl acetate/ethanol gradient, followed by elution with water. The aqueous fraction containing the pure compound 3 is placed in a water bath at 40° C. and heated under stirring for two days. Samples are collected every hour, and the mixture is analyzed by HPLC.

Molecules are shown by their SMILES.

Regarding `CC(=O)Sc1nc[nH]c1C[C@@H](C(=O)[O-])[N+](C)(C)C` [Compound 3, L-5-acetylsulfanyl-α,N,N,N(trimethyl)-histidine], the “hydrolysis of compound 3 (extent, in words)” value is “complete” in series [1], “nearly complete” in series [2] (after 2 days) and “nearly complete” in series [4] (after 2 days). Besides, the “% hydrolysis” value in series [2] (t = 0 h) was 0%; in series [2] (t = 2 j), 86%; in series [2] (t = 2 h), 19%; in series [2] (t = 10 h) it was 26%; in series [4] (t = 0 h), 0%; in series [4] (t = 2 j), 95%. Further, the “% hydrolysis” value in series [4] (t = 2 h) was 7%; in series [4] (t = 4 h), 21%; in series [4] (t = 6 h), 38%; in series [4] (t = 8 h), 60%; in series [4] (t = 18 h) it was 85%. Moreover, in series [3] (after 3 h 30, HPLC-ELSD), the “yield of compound 26 formed from compound 3” value was determined as 97%. For the same compound, in series [3] (after 3 h, 1H NMR), the “yield of hydrolysis of compound 3” value is listed as 90%. The “yield of compound 27 from hydrolysis and in situ oxidation of compound 3” value in series [4] (after 2 days) was 80%.
